In patent publication US8399696B2, “Functionalized biodegradable triclosan monomers and oligomers for controlled release” (Bezwada Biomedical, LLC, priority 2007, dated 2013):

Assay: Hydrolysis of 500 mg (0.5 grams) of compound in 50 mL buffer (pH 9 or pH 7) at 50 or 100° C.
Assay type: physicochemical
Method: Into a clean and dry 1 liter, 3 necked round bottom flask equipped with a nitrogen inlet was added 15 grams of triclosan in 150 ml of ethyl acetate. 15 ml of pyridine was added to the reaction mixture and the reaction mixture was left for stifling at room temperature for 10 minutes. To this stirring solution was added dropwise 24 grams of stearic acid glycolic acid chloride 27 dissolved in 30 ml of ethyl acetate and the reaction was left for stirring at room temperature for twenty four hours following which the […] salt was filtered off and the ethyl acetate layer was washed with 5% solution of sodium bicarbonate followed by drying using sodium sulphate. Ethyl acetate was distilled off using high vacuum distillation to yield 22 grams of crude 28. […]

[1] = 0.5 grams in 50 mL pH 9 buffer, 50° C.
[2] = 500 mg in 50 mL pH 9 buffer, 100° C.

SMILES | time to hydrolysis (Hydrolyzed in) [1] | time to hydrolysis (Hydrolyzed in) [2] | extent of hydrolysis in 53 hours (0.5 grams in 50 mL pH 7 buffer, 100° C., 53 hours) | extent of hydrolysis by TLC in 48 hours (0.5 grams in 50 mL pH 7 buffer, 50° C.) | extent of hydrolysis by TLC in 48 hours (0.5 grams in 50 mL pH 7 buffer, 100° C.)
O=C(COCCOc1ccc(OCCOCC(=O)Oc2cc(Cl)ccc2Oc2ccc(Cl)cc2Cl)cc1)Oc1cc(Cl)ccc1Oc1ccc(Cl)cc1Cl [Example 15, [2-(4-{2-[5-Chloro-2-(2,4-dichloro-phenoxy)-phenoxycarbonylmethoxy]-ethoxy}phenoxy)-ethoxy]-acetic acid 5-chloro-2-(2,4-dichloro-phenoxy)-phenyl ester] | Hydrolyzed in 150 hours | – | – | – | –
CCCCCCCCCCCCCCCCCC(=O)OCC(=O)Oc1cc(Cl)ccc1Oc1ccc(Cl)cc1Cl [Example 28, Triclosan Glycolic Acid Stearate] | – | 27 h | – | – | –
O=C(COCC(=O)Oc1cc(Cl)ccc1Oc1ccc(Cl)cc1Cl)Oc1cc(Cl)ccc1Oc1ccc(Cl)cc1Cl [Example 20] | Hydrolyzed in 102 hours | Hydrolyzed in 25 hours | Hydrolyzed 50% only in 53 hours | – | –
O=C(COc1ccc(OCC(=O)Oc2cc(Cl)ccc2Oc2ccc(Cl)cc2Cl)cc1)Oc1cc(Cl)ccc1Oc1ccc(Cl)cc1Cl [Compound 19, {4-[5-Chloro-2-(2,4-dichloro-phenoxy)-phenoxycarbonylmethoxy]-phenoxy}-acetic acid 5-chloro-2-(2,4-dichloro-phenoxy)-phenyl ester] | Hydrolyzed in 150 hours | – | – | By TLC it hydrolyzed around 5% in 48 hours | By TLC it hydrolyzed around 15% in 48 hours
